Here are results for six compounds from publication PMC10376254, “Phytochemical and Bioactivity Studies on Hedera helix L. (Ivy) Flower Pollen and Ivy Bee Pollen” (Antioxidants, 2023).

The test system of test [1] is xanthine oxidase (XO). Description: HPTLC-xanthine oxidase inhibitory activity (bioautography). As to conditions: for HPTLC-XO zone detection (XO inhibitors as white/yellow zones on purple background): 8 µg on plate for compounds, samples 50 mg/mL, 2 and 5 µL, documented 0–120 min. Format: biochemical.
Description: HPTLC analyses was immersed into a derivatization chamber with a mixture of phosphate buffer solution (pH 7.6) containing EDTA (1 mM), NBT (1 mM) and XO (0.1 U/mL), and incubated at 37 °C for 30 min in the dark. After drying in the air, the HPTLC plate was dipped into a phosphate buffer solution containing xanthine (1.5 mM) and incubated at 37 °C for 30 min in the dark. After drying in the air, the HPTLC plate was documented at white light in RT mode immediately (0 min), as well as at 5, 10, 15, 20, 30, 45, 60, 90, and 120 min, subsequently.
In HPTLC-XO inhibitory activity assay, the developed plate was dipped into a phosphate buffer solution containing xanthine and after incubation and drying was documented immediately (t = 0 min) and after 5, 10, 15, 20, 30, 45, 60, 90 and 120 min. Within this documentation interval, the plate was stored in the dark. The XO inhibitors were detected as white/yellow zones on a purple background (Figure 7).
Test [2] deals with T1, xanthine oxidase (XO) (Bos taurus, UniProt P80457).
T1 construct: purchased Sigma-Aldrich (Steinheim, Germany)
Briefly: Xanthine oxidase inhibitory activity (spectrophotometric). The test is classed as biochemical. As to conditions: for XO inhibitory activity (in words): spectrophotometric assay, at the applied concentrations (0.01–1 mg/mL).
Description: Half-maximal inhibitory concentration values (IC50) were calculated for superoxide radical scavenging and XO inhibitory activity. Inhibition values (%) were calculated based on absorbances (A) measured against blank solutions by using the following formula:Inhibition (%): (1 − (ASample − ASample Blank)/(AControl − AControl Blank)) × 100.
Sodium phosphate buffer (50 mM, pH 7.5, 75 µL) was placed in the wells of a 96-well microplate; this was followed by the DSTSs in different concentrations (25 µL); followed by freshly prepared XO solution (0.2 U/mL in phosphate buffer solution, 25 µL); followed by water (25 µL). Incubation of the reaction mixture at 37 °C for 15 min was followed by the addition of a substrate solution (0.15 mM xanthine, 50 µL) into the mixture and incubation at 37 °C for 30 min until the reaction was terminated by the addition of hydrochloric acid (0.5 M, 50 µL). Finally, the absorbance was measured at 290 nm against a blank, containing all reagents, except the enzyme solution.

Test [3] can be described thus: FRAP assay (ferric reducing antioxidant power). As to conditions: trolox equivalents, n = 3, average ± SD.
Description: The same range of concentration (1–2.5 mg/mL) of DSTSs was applied for DPPH, FRAP, CUPRAC and ABTS assays. […] The antioxidant activities were expressed as mg of trolox equivalents (TE) per g of hydroalcoholic extract (TE/g hydroalcoholic extract).
FRAP solution was freshly prepared by mixing 1 volume of iron (III) chloride solution (2 × 10^−2 M), 1 volume of TPTZ solution (1 × 10^−2 M) and 10 volumes of sodium acetate buffer (pH 3.6) solution. FRAP solution (280 µL) and the DSTSs (20 µL) or trolox standard solutions (20 µL; 3.125–100 μg/mL) or water as a blank (20 µL) were added in separate wells of a 96-well microplate, and after 6 min the absorbance was measured at 593 nm [31].
A short description of test [4]: DPPH• assay (spectrophotometric antioxidant activity). As to conditions: trolox equivalents, n = 3, average ± SD. In general terms: Loss of DPPH colour is used to gauge radical scavenging.
Description: The same range of concentration (1–2.5 mg/mL) of DSTSs was applied for DPPH, FRAP, CUPRAC and ABTS assays. […] The antioxidant activities were expressed as mg of trolox equivalents (TE) per g of hydroalcoholic extract (TE/g hydroalcoholic extract). […] Inhibition values (%) were calculated based on absorbances (A) measured against blank solutions by using the following formula:Inhibition (%): (1 − (ASample − ASample Blank)/(AControl − AControl Blank)) × 100.
Equal volumes (20 μL) of the DSTSs, trolox standard solutions (3.125–100 μg/mL) and methanol (as a blank) were placed in separate wells of a 96-well microplate, which was followed by the addition of DPPH solution (0.1 mM, 280 μL) to each well. After incubation in the dark at room temperature for 30 min, the absorbance was measured at 530 nm [30].
The nature of a further test: ABTS assay. As to conditions: trolox equivalents, n = 3, average ± SD.
The nature of test [5]: CUPRAC assay (cupric reducing antioxidant capacity). As to conditions: trolox equivalents, n = 3, average ± SD.
Description: (§1) The antioxidant activities were expressed as mg of trolox equivalents (TE) per g of hydroalcoholic extract (TE/g hydroalcoholic extract).
The CUPRAC method [32] was applied. Copper (II) sulfate pentahydrate (10 mM, 85 µL), neocuproine (7.5 mM, 85 µL) ammonium acetate buffer solution (85 µL, pH 7) and water (51 µL) were inserted in each well of a 96-well microplate. Then, either 43 µL of the DSTSs or trolox standard solutions (3.125–200 μg/mL) or water as a blank were added into each well. After incubation at room temperature for 30 min, the absorbance was measured at 450 nm.
A short description of test [6]: HPTLC-DPPH• effect-directed analysis. As to conditions: 0.4 µg on plate for compounds; STS 20 mg/mL, 2 and 5 µL.
Description: HPTLC analyses were dipped into DPPH solution (0.1%) for 3 s using a Chromatogram Immersion Device III (Camag). The plates were left to dry in the air in the dark and were documented under white light after 30 min. The compounds having antioxidant activity appeared as yellow bands on the purple background.
The image of the HPTLC plate captured at white light illumination after HPTLC-DPPH analyses was for image analyses converted to a different format using WinCATS software (Camag) and then converted to videodensitograms in fluorescence mode using VideoScan TLC/HPTLC Evaluation Software (Version 1.02.00) (Camag).
A short description of test [7]: Superoxide radical scavenging (SOD) activity (xanthine/XO/NBT). As to conditions: for SOD Activity IC50: enzymatic xanthine/XO/NBT, 560 nm, n = 3, ± SD, N.d. = Not detected. Format: biochemical.
Description: Half-maximal inhibitory concentration values (IC50) were calculated for superoxide radical scavenging and XO inhibitory activity. Inhibition values (%) were calculated based on absorbances (A) measured against blank solutions by using the following formula:Inhibition (%): (1 − (ASample − ASample Blank)/(AControl − AControl Blank)) × 100. (1)
SOD activity was performed as described in Ref. [27]. […] After incubation at 37 °C for 20 min the reaction was terminated by hydrochloric acid (0.6 M, 80 µL) and absorption was measured at 560 nm against a blank solution containing all reagents except XO.
[8] abbreviates: spectrophotometric, 290 nm, n = 3, ± SD, N.d. = Not detected.

“Also recorded” adds a separate entry of the source. Marks after values point to notes of the source that are not given here.

T1 sequence (P80457 2-1332 limits assumed): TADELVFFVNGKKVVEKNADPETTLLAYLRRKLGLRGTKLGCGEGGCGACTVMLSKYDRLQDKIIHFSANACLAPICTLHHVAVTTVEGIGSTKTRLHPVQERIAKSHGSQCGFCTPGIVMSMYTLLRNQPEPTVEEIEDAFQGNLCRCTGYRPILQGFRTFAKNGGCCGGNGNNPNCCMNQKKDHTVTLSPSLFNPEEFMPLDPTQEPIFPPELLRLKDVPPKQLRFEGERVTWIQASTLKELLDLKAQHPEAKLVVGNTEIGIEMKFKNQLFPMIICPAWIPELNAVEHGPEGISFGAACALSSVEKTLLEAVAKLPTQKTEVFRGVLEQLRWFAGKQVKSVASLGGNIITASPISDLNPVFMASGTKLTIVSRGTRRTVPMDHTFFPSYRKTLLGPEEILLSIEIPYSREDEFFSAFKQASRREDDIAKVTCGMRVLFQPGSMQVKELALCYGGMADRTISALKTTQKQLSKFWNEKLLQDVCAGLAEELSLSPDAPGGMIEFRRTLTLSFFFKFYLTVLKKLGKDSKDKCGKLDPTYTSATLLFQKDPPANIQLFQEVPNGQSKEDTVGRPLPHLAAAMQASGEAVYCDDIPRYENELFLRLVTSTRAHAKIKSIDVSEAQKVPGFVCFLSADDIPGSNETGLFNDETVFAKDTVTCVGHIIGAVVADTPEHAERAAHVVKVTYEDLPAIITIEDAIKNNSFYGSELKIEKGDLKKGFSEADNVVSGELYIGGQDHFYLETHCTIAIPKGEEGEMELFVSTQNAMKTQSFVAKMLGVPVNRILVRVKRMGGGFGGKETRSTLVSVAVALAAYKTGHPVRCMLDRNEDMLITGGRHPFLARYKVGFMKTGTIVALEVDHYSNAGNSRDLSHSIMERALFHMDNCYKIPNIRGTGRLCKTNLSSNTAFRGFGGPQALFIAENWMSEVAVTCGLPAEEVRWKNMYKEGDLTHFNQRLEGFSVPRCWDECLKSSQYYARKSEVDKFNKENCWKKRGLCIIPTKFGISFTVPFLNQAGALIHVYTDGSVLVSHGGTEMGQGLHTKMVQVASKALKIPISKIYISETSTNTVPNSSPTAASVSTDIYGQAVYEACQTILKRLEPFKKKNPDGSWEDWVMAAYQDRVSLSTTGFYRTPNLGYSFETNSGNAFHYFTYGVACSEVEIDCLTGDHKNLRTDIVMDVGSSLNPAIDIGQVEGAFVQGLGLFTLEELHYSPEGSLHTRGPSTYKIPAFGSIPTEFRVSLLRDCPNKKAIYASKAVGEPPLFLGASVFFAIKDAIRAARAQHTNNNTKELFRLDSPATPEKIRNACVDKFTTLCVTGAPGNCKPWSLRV
Description for ABTS assay: as §1
ABTS assay [33] was slightly modified and then applied. Equal volumes (20 µL) of the DSTSs, trolox standard solutions (6.25–100 μg/mL) or methanol (as a blank) were placed in separate wells of a 96-well microplate plate, and ABTS reagent (280 µL) was added. The absorbance was measured at 734 nm, after incubating the well plate for 6 min at room temperature.

What is called IC50 is the concentration needed to halve the response being measured. A high value points to weaker potency. Turning to `O=C(/C=C/c1ccc(O)c(O)c1)O[C@@H]1C[C@](O)(C(=O)O)C[C@@H](O)[C@H]1O` [Chlorogenic acid, chlorogenic acid, reference compound], the “HPTLC-XO zone detection (XO inhibitors as white/yellow zones on purple background)” value in the test with xanthine oxidase (XO) [1] is “appeared immediately as yellow zones and lasted for 120 min”. For the same compound, the IC50 against xanthine oxidase (XO) [2] (setting [8]) is 35.8 µM.
With `O=C(/C=C/c1ccc(O)c(O)c1)O[C@@H]1CC(O)(C(=O)O)C[C@@H](OC(=O)/C=C/c2ccc(O)c(O)c2)C1O` (some centres unmarked) [3,5-Dicaffeoylquinic acid, 3,5-dicaffeoylquinic acid, reference compound], the FRAP antioxidant activity in test [3] was 542.36 ± 15.41 ^b mg TE/g. For the same compound, the “HPTLC-XO zone detection (XO inhibitors as white/yellow zones on purple background)” value in the test on xanthine oxidase (XO) [1] is “appeared immediately as yellow zones and lasted for 120 min”. Moreover, the DPPH antioxidant activity in test [4] is 665.53 ± 1.96 ^b mg TE/g. Besides, the ABTS antioxidant activity in “ABTS assay” is 701.64 ± 13.63 ^b mg TE/g. In addition, the CUPRAC antioxidant activity in test [5] is 760.83 ± 12.84 ^b mg TE/g. Moreover, the “HPTLC-DPPH intensity of yellow zone” value in test [6] was “slightly lower intensity”. For the same compound, the “SOD Activity IC50” value in test [7] was 5.87 ± 0.32 ^a µg/mL. Further, the “XO Inhibitory Activity IC50” value on xanthine oxidase (XO) [2] (setting [8]) is 17.47 ± 2.23 ^c µg/mL.
For `C[C@@H]1OC(Oc2c(-c3ccc(O)cc3)oc3cc(O)cc(O)c3c2=O)[C@H](O)[C@H](O)[C@H]1O` (some centres unmarked) [Afzelin, kaempferol-3-O-rhamnopyranoside], in test [3], the FRAP antioxidant activity is 58.54 ± 2.37 ^d mg TE/g. Further, in the test on xanthine oxidase (XO) [1], the “HPTLC-XO zone detection (XO inhibitors as white/yellow zones on purple background)” value was “appeared immediately as yellow zones and lasted for 120 min”. Also, in test [4], the DPPH antioxidant activity is on record as 149.35 ± 4.28 ^d mg TE/g. For the same compound, the ABTS antioxidant activity in “ABTS assay” is reported as 104.71 ± 0.25 ^e mg TE/g. The CUPRAC antioxidant activity in test [5] is 171.40 ± 8.24 ^e mg TE/g. Also, the “SOD Activity IC50” value in test [7] is given as 20.61 ± 1.30 ^b µg/mL.
`Oc1ncnc2[nH]ncc12` [Allopurinol, allopurinol, reference compound]: the “HPTLC-XO zone detection (XO inhibitors as white/yellow zones on purple background)” value in the test with xanthine oxidase (XO) [1] is given as “immediately as a white zone, which lasted for 120 min”. In addition, the “SOD Activity IC50” value in test [7] is given as 3.03 ± 0.10 ^a µg/mL; in test [7] (listed as allopurinol) it was 3.0 µg/mL.
As for `C[C@@H]1O[C@@H](Oc2c(-c3ccc(O)cc3)oc3cc(O)cc(O)c3c2=O)[C@H](OC(=O)/C=C/c2ccc(O)cc2)[C@H](OC(=O)/C=C/c2ccc(O)cc2)[C@H]1O` [Platanoside], the FRAP antioxidant activity in test [3] is given as 49.06 ± 0.91 ^de mg TE/g. Further, the “time at which the XO inhibition zone appeared on the HPTLC plate” value in the test with xanthine oxidase (XO) [1] (8 µg on plate) is given as 20 min. Besides, in the test on xanthine oxidase (XO) [1], the “HPTLC-XO zone detection (XO inhibitors as white/yellow zones on purple background)” value is given as “weakest XO inhibition activity; also recorded: weak yellow zone”. Further, the DPPH antioxidant activity in test [4] is reported as 143.11 ± 1.31 ^d mg TE/g. Further, in the test “ABTS assay”, the ABTS antioxidant activity is listed as 173.15 ± 0.86 ^d mg TE/g. In addition, the CUPRAC antioxidant activity in test [5] is reported as 213.68 ± 8.41 ^d mg TE/g. In addition, in test [7] (spectrophotometric assay), the “SOD activity (in words)” value is “no SOD activity”. Moreover, at xanthine oxidase (XO) [2], the “XO inhibitory activity (in words)” value was “no XO inhibitory activity”.
Regarding `O=c1c(O[C@@H]2O[C@H](CO)[C@H](O)[C@H](O)[C@H]2O[C@@H]2O[C@H](CO)[C@@H](O)[C@H](O)[C@H]2O)c(-c2ccc(O)c(O)c2)oc2cc(O)cc(O)c12` [quercetin 3-O-β-glucopyranosyl-(1→2)-β-galactopyranoside], the FRAP antioxidant activity in test [3] is on record as 227.30 ± 2.65 ^c mg TE/g. In addition, the “HPTLC-XO zone detection (XO inhibitors as white/yellow zones on purple background)” value in the test with xanthine oxidase (XO) [1] was “appeared immediately as yellow zones and lasted for 120 min”. For the same compound, in test [4], the DPPH antioxidant activity was 400.21 ± 11.78 ^c mg TE/g. For the same compound, the ABTS antioxidant activity in “ABTS assay” was 242.13 ± 5.88 ^c mg TE/g. For the same compound, in test [5], the CUPRAC antioxidant activity is 560.53 ± 14.74 ^c mg TE/g. The “SOD Activity IC50” value in test [7] was 5.09 ± 0.36 ^a µg/mL. In addition, the “XO inhibitory activity (in words)” value at xanthine oxidase (XO) [2] is given as “low XO inhibitory activity”. The IC50 against xanthine oxidase (XO) [2] (setting [8]) was 117 µM.
